Here are results for six molecules from PubChem BioAssay AID1918994 (Molecular Pharmacology Branch, DTP, NCI, 2023).

SMILES strings stand for the structures. Where “and” joins values, the source holds several entries; their conditions need not be identical. Equal entries are not always repeated.

In the test the test system is 292921-168-R-J2-PDC complex spheroid growth. The test can be described thus: Anticancer human tumor 292921-168-R-J2-PDC patient-derived pancreatic carcinoma cell line growth inhibition [AhR]. The settings on record: for viability, T/C: stronger effect = lower value. In a few lines: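 Agents were dosed in half-log steps down from roughly clinical Cmax, or from 10 microM where Cmax was unknown, alone and with AhR antagonists. Read-out: percent test/control growth of tumor spheroids containing HUVEC and MSC stromal cells.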

Setting [1] is: curve of first compound, second compound 0.1 µM.
Setting [2] is: curve of first compound, second compound 0.316 µM.
Where [3] appears, read: curve of first compound, second compound 1 µM.
The mark [4] stands for this setting: curve of first compound, second compound 3.16 µM.
Setting [5] is: curve of first compound, second compound 10 µM.
[6] abbreviates: second compound 0.1 µM, first compound 0.0316 µM.
Setting [7] is: second compound 0.1 µM, first compound 0.1 µM.
Setting [8] is: second compound 0.1 µM, first compound 0.316 µM.
Where [9] appears, read: second compound 0.1 µM, first compound 1 µM.
Setting [10] is: second compound 0.316 µM, first compound 0.0316 µM.
Setting [11] is: second compound 0.316 µM, first compound 0.1 µM.
Where [12] appears, read: second compound 0.316 µM, first compound 0.316 µM.
The mark [13] stands for this setting: second compound 0.316 µM, first compound 1 µM.
Setting [14] is: second compound 1 µM, first compound 0.0316 µM.
The mark [15] stands for this setting: second compound 1 µM, first compound 0.1 µM.
Where [16] appears, read: second compound 1 µM, first compound 0.316 µM.
The mark [17] stands for this setting: second compound 1 µM, first compound 1 µM.
The mark [18] stands for this setting: second compound 3.16 µM, first compound 0.0316 µM.
Where [19] appears, read: second compound 3.16 µM, first compound 0.1 µM.
Setting [20] is: second compound 3.16 µM, first compound 0.316 µM.
[21] abbreviates: second compound 3.16 µM, first compound 1 µM.
[22] abbreviates: second compound 10 µM, first compound 0.0316 µM.
[23] abbreviates: second compound 10 µM, first compound 0.1 µM.
Where [24] appears, read: second compound 10 µM, first compound 0.316 µM.
Setting [25] is: second compound 10 µM, first compound 1 µM.
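Further: spheroids exposed to compounds for seven days after three days of growth.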

With `CCc1c2c(nc3ccc(O)cc13)-c1cc3c(c(=O)n1C2)COC(=O)[C@]3(O)CC` + Cc1ccccc1N=Nc1ccc(NC(=O)c2ccnn2C)c(C)c1, the IC50 is, setting by setting: under setting [1], 3.86 nM; under setting [2], 3.56 nM; under setting [3], 3.34 nM; under setting [4], 1.37 nM; under setting [5], under 0.949 nM. Moreover, the viability, T/C runs as follows: (second compound 0.1 µM, first compound 0.000949 µM) 78.2%; (second compound 0.1 µM, first compound 0.003 µM) 58.5%; (second compound 0.1 µM, first compound 0.00949 µM) 20%; (second compound 0.1 µM, first compound 0.03 µM) 7.99%; (second compound 0.1 µM, first compound 0.0949 µM) 5.02%; (second compound 0.1 µM, first compound 0.3 µM) 2.76%. The viability, T/C is, setting by setting: (second compound 0.316 µM, first compound 0.000949 µM) 68.3%; (second compound 0.316 µM, first compound 0.003 µM) 55.9%; (second compound 0.316 µM, first compound 0.00949 µM) 17.3%; (second compound 0.316 µM, first compound 0.03 µM) 8.17%; (second compound 0.316 µM, first compound 0.0949 µM) 3.89%; (second compound 0.316 µM, first compound 0.3 µM) 3.58%. Further, the viability, T/C (second compound 1 µM, first compound 0.000949 µM) is 68.6%; the viability, T/C (second compound 1 µM, first compound 0.003 µM) is 53.6%; the viability, T/C (second compound 1 µM, first compound 0.00949 µM) was 18.9%; the viability, T/C (second compound 1 µM, first compound 0.03 µM) was 9.76%; the viability, T/C (second compound 1 µM, first compound 0.0949 µM) was 5.35%; the viability, T/C (second compound 1 µM, first compound 0.3 µM) is 2.94%. In addition, the viability, T/C runs as follows: (second compound 3.16 µM, first compound 0.000949 µM) 54.4%; (second compound 3.16 µM, first compound 0.003 µM) 40.6%; (second compound 3.16 µM, first compound 0.00949 µM) 16%; (second compound 3.16 µM, first compound 0.03 µM) 9.67%; (second compound 3.16 µM, first compound 0.0949 µM) 5.09%; (second compound 3.16 µM, first compound 0.3 µM) 3.01%. The viability, T/C is, setting by setting: (second compound 10 µM, first compound 0.000949 µM) 47.4%; (second compound 10 µM, first compound 0.003 µM) 40.9%; (second compound 10 µM, first compound 0.00949 µM) 17.5%; (second compound 10 µM, first compound 0.03 µM) 10.8%; (second compound 10 µM, first compound 0.0949 µM) 5.21%; (second compound 10 µM, first compound 0.3 µM) 3.01%.
In the case of `COc1cc(C2c3cc4c(cc3C(OC3OC5COC(C)OC5C(O)C3O)C3COC(=O)C23)OCO4)cc(OC)c1O` (stereo not given), the viability, T/C was 96% and 96.6% and 96.5% (compound 0.0316 µM); 93.8% and 79.8% and 87.8% (compound 0.1 µM); 66.4% and 73% and 56% (compound 0.316 µM); 43.2% and 38.8% and 31.6% (compound 1 µM); 29% and 26% and 19.7% (compound 3.16 µM); 13.7% and 15.4% and 10.6% (compound 10 µM). Besides, the IC50 (curve of compound) is 768 nM and 710 nM and 449 nM.
`COc1cc(Nc2ncc3c(n2)-c2ccc(Cl)cc2C(c2c(F)cccc2OC)=NC3)ccc1C(=O)O`: the viability, T/C by setting is: (compound 0.0316 µM) 53.9% and 45.2% and 56.9%; (compound 0.1 µM) 49.2% and 45% and 39.5%; (compound 0.316 µM) 49.9% and 53.6% and 45.8%; (compound 1 µM) 57.9% and 51.2% and 43%; (compound 3.16 µM) 49.8% and 40.5% and 41.5%; (compound 10 µM) 41.7% and 31.2% and 30.7%.
Turning to `Nc1ncn(C2CC(O)C(CO)O2)c(=O)n1` (stereo not given) + Cc1cncc(-c2nc(NCCc3c[nH]c4ccccc34)c3ncn(C(C)C)c3n2)c1, the 50% inhibitory concentration (IC50) by setting is: under setting [1], over 1000 nM; under setting [2], over 1000 nM; under setting [3], over 1000 nM; under setting [4], over 1000 nM; under setting [5], 9.68 nM. In addition, the viability, T/C (second compound 0.1 µM, first compound 0.00316 µM) was 99.6%; the viability, T/C (second compound 0.1 µM, first compound 0.01 µM) was 100%; the viability, T/C under setting [6] was 84%; the viability, T/C under setting [7] is 89.6%; the viability, T/C under setting [8] was 80.6%; the viability, T/C under setting [9] was 65.6%. For the same molecule, the viability, T/C (second compound 0.316 µM, first compound 0.00316 µM) is 84.1%; the viability, T/C (second compound 0.316 µM, first compound 0.01 µM) is 86.2%; the viability, T/C under setting [10] was 88.1%; the viability, T/C under setting [11] is 79.3%; the viability, T/C under setting [12] was 78.6%; the viability, T/C under setting [13] is 70.7%. The viability, T/C (second compound 1 µM, first compound 0.00316 µM) is 80.5%; the viability, T/C (second compound 1 µM, first compound 0.01 µM) is 86.9%; the viability, T/C under setting [14] is 80.4%; the viability, T/C under setting [15] was 77.8%; the viability, T/C under setting [16] was 82%; the viability, T/C under setting [17] was 73.7%. Moreover, the viability, T/C reads like this: (second compound 3.16 µM, first compound 0.00316 µM) 70.7%; (second compound 3.16 µM, first compound 0.01 µM) 71.9%; under setting [18], 76.5%; under setting [19], 67.6%; under setting [20], 64.1%; under setting [21], 62.3%. The viability, T/C reads like this: (second compound 10 µM, first compound 0.00316 µM) 51.9%; (second compound 10 µM, first compound 0.01 µM) 49%; under setting [22], 50%; under setting [23], 47.1%; under setting [24], 43.2%; under setting [25], 45.5%.
`O=C(c1cc(Cc2n[nH]c(=O)c3ccccc23)ccc1F)N1CCN(C(=O)C2CC2)CC1`: the viability, T/C was 110% and 97.3% and 99.3% (compound 0.0316 µM); 110% and 100% and 95.6% (compound 0.1 µM); 95.5% and 93.5% and 84.8% (compound 0.316 µM); 98.6% and 97.8% and 91.6% (compound 1 µM); 102% and 92.5% and 83.3% (compound 3.16 µM); 80% and 74.5% and 68% (compound 10 µM). The IC50 (curve of compound) was over 10000 nM.
As to `CC(C)c1c(-c2ccccc2)nc2c(C#N)c[nH]n2c1=O` + Cc1cncc(-c2nc(NCCc3c[nH]c4ccccc34)c3ncn(C(C)C)c3n2)c1, the IC50 under setting [1] is over 10000 nM; the half-inhibitory concentration (IC50) under setting [2] is over 10000 nM; the half-maximal inhibitory concentration (IC50) under setting [3] is over 10000 nM; the IC50 under setting [4] was over 10000 nM; the IC50 under setting [5] worked out at 386 nM. In addition, the viability, T/C was 103% under setting [6]; 95.1% under setting [7]; 89.7% under setting [8]; 98.8% under setting [9]; 97.4% (second compound 0.1 µM, first compound 3.16 µM); 97.2% (second compound 0.1 µM, first compound 10 µM). In addition, the viability, T/C is 98.7% under setting [10]; 98.8% under setting [11]; 95.8% under setting [12]; 99.8% under setting [13]; 100% (second compound 0.316 µM, first compound 3.16 µM); 92.7% (second compound 0.316 µM, first compound 10 µM). The viability, T/C is 91.2% under setting [14]; 85.6% under setting [15]; 88.9% under setting [16]; 83.5% under setting [17]; 75.4% (second compound 1 µM, first compound 3.16 µM); 78.1% (second compound 1 µM, first compound 10 µM). The viability, T/C is, setting by setting: under setting [18], 76.4%; under setting [19], 76.3%; under setting [20], 79%; under setting [21], 67.1%; (second compound 3.16 µM, first compound 3.16 µM) 65.3%; (second compound 3.16 µM, first compound 10 µM) 62%. For the same molecule, the viability, T/C reads like this: under setting [22], 51%; under setting [23], 50.1%; under setting [24], 56.2%; under setting [25], 46.1%; (second compound 10 µM, first compound 3.16 µM) 43.9%; (second compound 10 µM, first compound 10 µM) 42.6%.

As a reminder, the IC50 is the midpoint of a concentration-inhibition curve. A word on the viability, T/C: it is the ratio of treated to control.
